Experimental data as given in US10294202B2, “Pyrrolidinones as herbicides” (FMC Corporation, priority 2013, dated 2019).

What was measured:
[1] = tested on: ducksalad; experiment: Test B flooded paddy test; type: in vivo, Heteranthera limosa; conditions: 500 g ai/ha, Flood; scale of 0 to 100 where 0 is no effect and 100 is complete control
Method in brief: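 Paddy-water application at a 3 cm flood, young plants having two leaves. Water level maintained; greenhouse, 13–15 days; visual 0–100 control rating.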

[2] = tested on: barnyardgrass; experiment: Test A pre-/postemergence herbicide test; type: in vivo, Echinochloa crus-galli
Method in brief: (§1)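 Planted in loam–sand blend; treated the same day preemergence by directed soil spray, while separately grown plants at one- to two-leaf stage got postemergence spray. Compared visually with untreated controls after approximately 10 days; 100 means complete control.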

[3] = tested on: nutsedge, yellow; experiment: Test C pre-/postemergence herbicide test; type: in vivo, Cyperus esculentus
Method in brief: (§2)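 Test compounds, formulated in a surfactant-containing non-phytotoxic solvent blend, are applied to seeded loam/sand soil (preemergence) and to young plants at the 1- to 4-leaf stage in peat-based medium (postemergence). Plants stay 13 to 15 days under greenhouse conditions, then are scored visually relative to controls, 0 = no effect, 100 = complete control.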

[4] = tested on: corn; experiment: Test A pre-/postemergence herbicide test; type: in vivo, Zea mays; conditions: Postemergence
Method in brief: as §1

[5] = tested on: soybean; experiment: Test C pre-/postemergence herbicide test; type: in vivo, Glycine max
Method in brief: as §2

[6] = tested on: giant foxtail; experiment: Test A pre-/postemergence herbicide test; type: in vivo, Setaria faberii
Method in brief: as §1

[7] = tested on: barnyardgrass; experiment: Test C pre-/postemergence herbicide test; type: in vivo, Echinochloa crus-galli
Method in brief: as §2

[8] = tested on: waterhemp; experiment: Test C pre-/postemergence herbicide test; type: in vivo, Amaranthus rudis
Method in brief: as §2

[9] = tested on: ryegrass, Italian; experiment: Test C pre-/postemergence herbicide test; type: in vivo, Lolium multiflorum
Method in brief: as §2

[10] = tested on: lambsquarters; experiment: Test C pre-/postemergence herbicide test; type: in vivo, Chenopodium album
Method in brief: as §2

[11] = tested on: corn; experiment: Test C pre-/postemergence herbicide test; type: in vivo, Zea mays
Method in brief: as §2

[12] = Postemergence, 125 g ai/ha, 0 to 100 scale, 0 is no effect, 100 is complete control
[13] = Postemergence, 500 g ai/ha, 0 to 100 scale (0 no effect, 100 complete control)
[14] = Preemergence, 125 g ai/ha, 0 to 100 scale where 0 is no effect and 100 is complete control
[15] = preemergence, 500 g ai/ha, 0 to 100 scale, 0 is no effect and 100 is complete control
[16] = Postemergence, 31 g ai/ha, scale 0 to 100 (0 no effect, 100 complete control)
[17] = Postemergence, 62 g ai/ha, scale 0 (no effect) to 100 (complete control)
[18] = Postemergence, 125 g ai/ha, scale 0 to 100 (0 no effect, 100 complete control)
[19] = Postemergence, 250 g ai/ha, scale 0 to 100 (0 no effect, 100 complete control)
[20] = Preemergence, 31 g ai/ha, scale 0 to 100, 0 is no effect and 100 is complete control
[21] = Preemergence, 62 g ai/ha, scale 0 to 100 (0 no effect, 100 complete control)
[22] = Preemergence, 125 g ai/ha, scale 0 to 100 (0 no effect, 100 complete control)
[23] = 125 g ai/ha, 0 to 100 scale, 0 is no effect, 100 is complete control
[24] = 125 g ai/ha, visual rating, 0 to 100 scale, 0 no effect, 100 complete control, approximately 10 days, preemergence

## O=C1NCC(c2cc(F)cc(F)c2)C1C(=O)Nc1cccc(F)c1F (racemic) [Compound 279]
[1]
  Plant response rating, Ducksalad: 100
[2]; [12]
  Plant response rating, Barnyardgrass: 80
[2]; [13]
  Plant response rating, Barnyardgrass: 90
[2]; [14]
  Plant response rating, Barnyardgrass: 80
[2]; [15]
  Plant response rating, Barnyardgrass: 90
[3]; [16]
  Plant response rating, Nutsedge, Yellow: 0
[3]; [17]
  Plant response rating, Nutsedge, Yellow: 0
[3]; [18]
  Plant response rating, Nutsedge, Yellow: 0
[3]; [19]
  Plant response rating, Nutsedge, Yellow: 0
[3]; [20]
  Nutsedge, Yellow plant response rating: 0
[3]; [21]
  Nutsedge, Yellow plant response rating: 0
[3]; [22]
  Plant response rating, Nutsedge, Yellow: 0
[3]; Preemergence, 250 g ai/ha
  Plant response rating (scale of 0 to 100), Nutsedge, Yellow: 55
[4]; [23]
  Plant response rating, Corn: 40
[4]; 500 g ai/ha, 0 to 100 scale (0 no effect, 100 complete control)
  Plant response rating, Corn: 70
[5]; [16]
  Plant response rating, Soybean: 40
[5]; [17]
  Plant response rating, Soybean: 10
[5]; [18]
  Plant response rating, Soybean: 0
[5]; [19]
  Plant response rating, Soybean: 10
[5]; [20]
  Soybean plant response rating: 0
[5]; [21]
  Soybean plant response rating: 0
[5]; [22]
  Plant response rating, Soybean: 0
[5]; Preemergence, 250 g ai/ha
  Plant response rating (scale of 0 to 100), Soybean: 10
[6]; [12]
  Plant response rating, Foxtail, Giant: 80
[6]; [13]
  Plant response rating, Foxtail, Giant: 90
[6]; [14]
  Plant response rating, Foxtail, Giant: 90
[6]; [15]
  Plant response rating, Foxtail, Giant: 90
[7]; [16]
  Plant response rating, Barnyardgrass: 15
[7]; [17]
  Plant response rating, Barnyardgrass: 55
[7]; [18]
  Plant response rating, Barnyardgrass: 85
[7]; [19]
  Plant response rating, Barnyardgrass: 85
[7]; [20]
  Barnyardgrass plant response rating: 80
[7]; [21]
  Barnyardgrass plant response rating: 95
[7]; [22]
  Plant response rating, Barnyardgrass: 95
[7]; Preemergence, 250 g ai/ha
  Plant response rating (scale of 0 to 100; 0 is no effect, 100 is complete control), Barnyardgrass: 98
[8]; [16]
  Plant response rating, Waterhemp: 5
[8]; [17]
  Plant response rating, Waterhemp: 20
[8]; [18]
  Plant response rating, Waterhemp: 15
[8]; [19]
  Plant response rating, Waterhemp: 15
[8]; [20]
  Waterhemp plant response rating: 0
[8]; [21]
  Waterhemp plant response rating: 15
[8]; [22]
  Plant response rating, Waterhemp: 55
[8]; Preemergence, 250 g ai/ha
  Plant response rating (scale of 0 to 100), Waterhemp: 80
[9]; [16]
  Plant response rating, Ryegrass, Italian: 0
[9]; [17]
  Plant response rating, Ryegrass, Italian: 0
[9]; [18]
  Plant response rating, Ryegrass, Italian: 0
[9]; [19]
  Plant response rating, Ryegrass, Italian: 0
[9]; [20]
  Ryegrass, Italian plant response rating: 0
[9]; [21]
  Ryegrass, Italian plant response rating: 10
[9]; [22]
  Plant response rating, Ryegrass, Italian: 30
[9]; Preemergence, 250 g ai/ha
  Plant response rating (scale of 0 to 100), Ryegrass, Italian: 60
[10]; [16]
  Plant response rating, Lambsquarters: 0
[10]; [17]
  Plant response rating, Lambsquarters: 0
[10]; [18]
  Plant response rating, Lambsquarters: 45
[10]; [19]
  Plant response rating, Lambsquarters: 45
[10]; [20]
  Lambsquarters plant response rating: 0
[10]; [21]
  Lambsquarters plant response rating: 0
[10]; [22]
  Plant response rating, Lambsquarters: 65
[10]; Preemergence, 250 g ai/ha
  Plant response rating (scale of 0 to 100), Lambsquarters: 90
[11]; [16]
  Plant response rating, Corn: 0
[11]; [17]
  Plant response rating, Corn: 0
[11]; [18]
  Plant response rating, Corn: 0
[11]; [19]
  Plant response rating, Corn: 0
[11]; [20]
  Corn plant response rating: 0
[11]; [21]
  Corn plant response rating: 0
[11]; [22]
  Plant response rating, Corn: 5
[11]; Preemergence, 250 g ai/ha
  Plant response rating (scale of 0 to 100), Corn: 65

## O=C1NCC(c2cccc(OC(F)F)c2)C1C(=O)Nc1ccccc1F (centres unmarked) [Compound 223]
[1]
  Plant response rating, Ducksalad: 100
[2]; [24]
  Plant response rating, Barnyardgrass: 90
[2]; [12]
  Plant response rating, Barnyardgrass: 80
[2]; Postemergence, 500 g ai/ha
  Barnyardgrass plant response rating (0 to 100 scale, 0 is no effect, 100 is complete control): 80
[2]; [15]
  Plant response rating, Barnyardgrass: 90
[3]; [16]
  Plant response rating, Nutsedge, Yellow: 0
[3]; [17]
  Plant response rating, Nutsedge, Yellow: 0
[3]; [18]
  Plant response rating, Nutsedge, Yellow: 0
[3]; [19]
  Plant response rating, Nutsedge, Yellow: 0
[3]; [20]
  Nutsedge, Yellow plant response rating: 100
[3]; [21]
  Nutsedge, Yellow plant response rating: 0
[3]; [22]
  Plant response rating, Nutsedge, Yellow: 0
[3]; Preemergence, 250 g ai/ha
  Plant response rating (scale of 0 to 100), Nutsedge, Yellow: 0
[4]; [23]
  Plant response rating, Corn: 0
[4]; 500 g ai/ha
  Corn plant response rating (0 to 100 scale, 0 is no effect, 100 is complete control): 50
[5]; [16]
  Plant response rating, Soybean: 10
[5]; [17]
  Plant response rating, Soybean: 0
[5]; [18]
  Plant response rating, Soybean: 0
[5]; [19]
  Plant response rating, Soybean: 30
[5]; [20]
  Soybean plant response rating: 0
[5]; [21]
  Soybean plant response rating: 5
[5]; [22]
  Plant response rating, Soybean: 5
[5]; Preemergence, 250 g ai/ha
  Plant response rating (scale of 0 to 100), Soybean: 15
[6]; [24]
  Plant response rating, Foxtail, Giant: 90
[6]; [12]
  Plant response rating, Foxtail, Giant: 80
[6]; Postemergence, 500 g ai/ha
  Foxtail, Giant plant response rating (0 to 100 scale, 0 is no effect, 100 is complete control): 90
[6]; [15]
  Plant response rating, Foxtail, Giant: 90
[7]; [16]
  Plant response rating, Barnyardgrass: 0
[7]; [17]
  Plant response rating, Barnyardgrass: 0
[7]; [18]
  Plant response rating, Barnyardgrass: 45
[7]; [19]
  Plant response rating, Barnyardgrass: 60
[7]; [20]
  Barnyardgrass plant response rating: 65
[7]; Preemergence, 62 g ai/ha, scale 0 to 100
  Plant response rating, Barnyardgrass: 85
[7]; [22]
  Plant response rating, Barnyardgrass: 90
[7]; Preemergence, 250 g ai/ha
  Plant response rating (scale of 0 to 100; 0 is no effect, 100 is complete control), Barnyardgrass: 95
[8]; [16]
  Plant response rating, Waterhemp: 0
[8]; [17]
  Plant response rating, Waterhemp: 0
[8]; [18]
  Plant response rating, Waterhemp: 10
[8]; [19]
  Plant response rating, Waterhemp: 10
[8]; [20]
  Waterhemp plant response rating: 90
[8]; [21]
  Waterhemp plant response rating: 0
[8]; [22]
  Plant response rating, Waterhemp: 0
[8]; Preemergence, 250 g ai/ha
  Plant response rating (scale of 0 to 100), Waterhemp: 25
[9]; [16]
  Plant response rating, Ryegrass, Italian: 0
[9]; [17]
  Plant response rating, Ryegrass, Italian: 0
[9]; [18]
  Plant response rating, Ryegrass, Italian: 0
[9]; [19]
  Plant response rating, Ryegrass, Italian: 0
[9]; [20]
  Ryegrass, Italian plant response rating: 0
[9]; [21]
  Ryegrass, Italian plant response rating: 0
[9]; [22]
  Plant response rating, Ryegrass, Italian: 10
[9]; Preemergence, 250 g ai/ha
  Plant response rating (scale of 0 to 100), Ryegrass, Italian: 15
[10]; [16]
  Plant response rating, Lambsquarters: 0
[10]; [17]
  Plant response rating, Lambsquarters: 5
[10]; [18]
  Plant response rating, Lambsquarters: 35
[10]; [19]
  Plant response rating, Lambsquarters: 60
[10]; [20]
  Lambsquarters plant response rating: 70
[10]; [21]
  Lambsquarters plant response rating: 70
[10]; [22]
  Plant response rating, Lambsquarters: 85
[10]; Preemergence, 250 g ai/ha
  Plant response rating (scale of 0 to 100), Lambsquarters: 90
[11]; [16]
  Plant response rating, Corn: 0
[11]; [17]
  Plant response rating, Corn: 0
[11]; [18]
  Plant response rating, Corn: 0
[11]; [19]
  Plant response rating, Corn: 5
[11]; [20]
  Corn plant response rating: 0
[11]; [21]
  Corn plant response rating: 0
[11]; [22]
  Plant response rating, Corn: 0
[11]; Preemergence, 250 g ai/ha
  Plant response rating (scale of 0 to 100), Corn: 45
